Test [1] addresses β-xylosidase from Thermoanaerobacterium saccharolyticum. The settings on record: read-out: Ki (Xyl Therm. sac.), cited from earlier work.
For test [2], the target named is human lysosomal β-glucocerebrosidase (GCase). The settings on record: cited from earlier work; for IC50: compounds 10a-10b.
The target in test [3] is T1, human β-glucocerebrosidase (GCase) (Homo sapiens, UniProt P04062).
T1 construct: gift of Dr. Lorne Clarke, University of British Columbia
T1 sequence (P04062 40-536): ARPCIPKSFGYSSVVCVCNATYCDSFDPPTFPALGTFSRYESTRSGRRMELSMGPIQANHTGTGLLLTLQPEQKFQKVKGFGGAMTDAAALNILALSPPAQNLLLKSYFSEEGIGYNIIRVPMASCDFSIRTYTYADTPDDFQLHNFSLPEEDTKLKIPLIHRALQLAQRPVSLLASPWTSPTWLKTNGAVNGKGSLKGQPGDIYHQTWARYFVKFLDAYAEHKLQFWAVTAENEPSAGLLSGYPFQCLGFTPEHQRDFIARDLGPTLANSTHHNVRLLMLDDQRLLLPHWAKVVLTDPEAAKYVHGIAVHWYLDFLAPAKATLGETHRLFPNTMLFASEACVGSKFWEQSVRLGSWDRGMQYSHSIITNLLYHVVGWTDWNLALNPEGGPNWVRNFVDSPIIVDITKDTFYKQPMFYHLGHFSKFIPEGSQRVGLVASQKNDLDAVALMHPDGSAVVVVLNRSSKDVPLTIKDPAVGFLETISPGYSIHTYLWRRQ
Briefly: Ki determination with human β-glucocerebrosidase (GCase). It counts as biochemical. The note with it: 37 °C, citric acid/phosphate buffer with Triton X-100 and taurocholic acid pH 7.0, 4-nitrophenyl glycopyranoside substrate; read-out: Ki β-Glu, Gaucher (GCase). An excerpt: (§1) For the biological evaluation of the synthesized DIX derivatives 19, 23, 26, and 28, we have probed a series of standard glycoside hydrolases, including β-glucosidase from Agrobacterium sp. (ABG), β-galactosidase from E. coli, Fabrazyme (commercial recombinant human lysosomal α-galactosidase), α-glucosidase S. cerevisiae, and human β-glucocerebrosidase GCase, to investigate ligand activity as well as selectivity. […] This increase in selectivity might be explained by the fact that compounds 26 and 28 combine the advantages of both features, the ethyl group at position C-1 locking the structure in the ^1C4 conformation as well as the lipophilic substituents at the ring nitrogen. The former has been implied for favorable ligand properties and the fitting into the active site of GCase. The latter interacts with the lipophilic entrance to the active site of GCase mimicking the ceramide residue of the natural substrate glucosyl ceramide. Compounds 26 and 28 will serve as building blocks for further functionalisation as proposed.
(§2) Kinetic studies were performed at 37 °C in an appropriate buffer using a known concentration of enzyme (specific conditions depicted below). Ki determinations were performed using the corresponding 4-nitrophenyl α- or β-D-glycopyranoside as substrate. In a typical assay, the enzyme was incubated with different inhibitor concentrations for up to 5 min before initiating the reaction by the addition of substrate. The initial reaction rate was measured by monitoring the increase in absorbance at 400 nm for up to 10 min. Ki determinations were performed using at least two different substrate concentrations. For each inhibitor, a range of four-to-six inhibitor concentrations bracketing the Ki value ultimately determined was used for each substrate concentration. Dixon plots (1/v vs. [I]) were constructed to validate the use of the competitive inhibition model. The data were then fitted using non-linear regression analysis with Grafit 7.0.

Test [4] has as its target T2, Fabrazyme (commercial recombinant human lysosomal α-galactosidase) (Homo sapiens, UniProt P06280).
T2 construct: purchased Fabrazyme, a commercial product; received as a gift from Dr Lorne Clarke, University of British Columbia
T2 sequence (P06280 32-429): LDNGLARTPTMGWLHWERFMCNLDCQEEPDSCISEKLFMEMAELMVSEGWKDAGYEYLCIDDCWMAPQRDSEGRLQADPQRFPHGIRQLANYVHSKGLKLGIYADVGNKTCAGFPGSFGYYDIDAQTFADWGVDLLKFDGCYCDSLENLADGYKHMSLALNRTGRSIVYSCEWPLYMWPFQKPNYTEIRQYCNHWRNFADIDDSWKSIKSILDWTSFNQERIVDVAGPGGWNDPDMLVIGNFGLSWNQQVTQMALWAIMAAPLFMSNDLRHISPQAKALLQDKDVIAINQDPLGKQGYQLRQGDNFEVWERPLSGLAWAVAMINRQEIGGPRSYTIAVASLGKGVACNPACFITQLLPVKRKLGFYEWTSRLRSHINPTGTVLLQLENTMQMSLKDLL
Kind of test: Ki determination with Fabrazyme. Type of test: biochemical. The settings on record: 37 °C, citrate/phosphate buffer with Triton X-100 and taurocholic acid pH 5.5, 4-nitrophenyl glycopyranoside substrate; read-out: Ki α-Gal, Fabrazyme.
Source text: as §1, §2

For test [5], the target named is T3, β-glucosidase/β-galactosidase from Agrobacterium sp. (ABG) (Agrobacterium sp., UniProt P12614).
T3 construct: made in house; host or cells: E. coli
T3 sequence (P12614 1-459): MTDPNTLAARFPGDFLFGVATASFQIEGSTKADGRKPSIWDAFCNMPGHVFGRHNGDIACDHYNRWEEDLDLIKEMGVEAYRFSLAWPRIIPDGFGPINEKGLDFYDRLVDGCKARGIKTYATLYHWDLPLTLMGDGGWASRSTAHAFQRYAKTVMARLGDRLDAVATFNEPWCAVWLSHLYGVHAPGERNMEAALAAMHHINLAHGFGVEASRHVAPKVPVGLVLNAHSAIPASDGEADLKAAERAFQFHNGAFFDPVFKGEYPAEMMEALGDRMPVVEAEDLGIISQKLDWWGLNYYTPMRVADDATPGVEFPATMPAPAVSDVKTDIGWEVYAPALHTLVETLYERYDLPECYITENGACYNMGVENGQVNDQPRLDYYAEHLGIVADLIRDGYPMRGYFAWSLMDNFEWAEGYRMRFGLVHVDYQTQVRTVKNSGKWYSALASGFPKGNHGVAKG
Kind of test: Ki determination with β-glucosidase from Agrobacterium sp. (ABG). Type of test: biochemical. The settings on record: for Ki: 37 °C, 50 mM sodium phosphate buffer pH 7, 4-nitrophenyl glycopyranoside substrate, read-out: Ki β-Glu, ABG.
Source text: as §1, §2

Test [6] addresses T4, E.coli lac z β-galactosidase (Escherichia coli, UniProt P00722).
T4 construct: purchased Sigma-Aldrich
Briefly: Ki determination with β-galactosidase from E. coli. It counts as biochemical. The note with it: 37 °C, 50 mM sodium phosphate, 1.0 mM MgCl2 pH 7, 4-nitrophenyl glycopyranoside substrate; read-out: Ki β-Gal, E. coli.
Source text: as §1, §2

Test [7] has as its target S. cerevisiae α-glucosidase. Kind of test: Ki determination with α-glucosidase S. cerevisiae. The note with it: 37 °C, 50 mM sodium phosphate buffer pH 7, PNP α-Glc substrate; read-out: Ki α-Glu, S. cer. It counts as biochemical.
Source text: as §1, §2

The mark [8] stands for this setting: C-1 alkyl modified DIX analogues 15.
Where [9] appears, read: D-xylo 1-C-iminosugar glycosides 14.

The structures appear in SMILES notation. Read-outs that look alike come from different tables or passages of the source.

Usually Ki stands for a measure of affinity in units of concentration, obtained from inhibition or displacement. In general, IC50 refers to the concentration that inhibits the measured activity by half.

T4 sequence (P00722 2-1024 limits assumed): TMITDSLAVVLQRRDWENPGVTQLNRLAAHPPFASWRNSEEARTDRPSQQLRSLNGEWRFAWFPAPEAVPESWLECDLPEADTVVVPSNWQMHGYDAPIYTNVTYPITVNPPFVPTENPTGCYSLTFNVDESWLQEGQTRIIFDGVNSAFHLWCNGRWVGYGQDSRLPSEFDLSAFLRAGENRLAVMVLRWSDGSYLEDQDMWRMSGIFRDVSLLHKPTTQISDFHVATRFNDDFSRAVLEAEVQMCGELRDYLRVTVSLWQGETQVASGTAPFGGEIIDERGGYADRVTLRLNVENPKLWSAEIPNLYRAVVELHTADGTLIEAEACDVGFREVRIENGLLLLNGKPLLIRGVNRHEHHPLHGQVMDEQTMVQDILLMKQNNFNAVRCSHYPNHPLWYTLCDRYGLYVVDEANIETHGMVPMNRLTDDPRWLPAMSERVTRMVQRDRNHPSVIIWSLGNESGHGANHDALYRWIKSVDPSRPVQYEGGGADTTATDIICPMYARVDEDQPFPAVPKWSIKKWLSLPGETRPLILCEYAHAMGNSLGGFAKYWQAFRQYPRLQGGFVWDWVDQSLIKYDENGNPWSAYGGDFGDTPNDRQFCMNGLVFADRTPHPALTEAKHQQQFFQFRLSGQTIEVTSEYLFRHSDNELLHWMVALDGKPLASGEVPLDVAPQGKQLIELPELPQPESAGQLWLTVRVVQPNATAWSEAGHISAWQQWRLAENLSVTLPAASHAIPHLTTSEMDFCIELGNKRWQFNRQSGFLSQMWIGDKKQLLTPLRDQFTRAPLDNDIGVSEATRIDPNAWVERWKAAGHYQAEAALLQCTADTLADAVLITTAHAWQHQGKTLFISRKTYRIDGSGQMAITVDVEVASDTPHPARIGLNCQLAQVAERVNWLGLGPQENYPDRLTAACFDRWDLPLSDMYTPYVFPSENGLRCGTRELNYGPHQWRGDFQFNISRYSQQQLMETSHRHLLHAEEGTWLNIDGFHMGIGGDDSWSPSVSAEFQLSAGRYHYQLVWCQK

For the molecule `COC(=O)[C@H](CCCCN1C[C@@H](O)[C@H](O)[C@@H](O)C1)NS(=O)(=O)c1cccc2c(N(C)C)cccc12` [8, R^1 = NHdansyl, R^2 = OMe], the Ki in test [1] (N-modified DIX derivatives 8) is 10 µM.
With `COC(=O)[C@H](CCCCN1C[C@@H](O)[C@H](O)[C@@H](O)C1)NC(=O)[C@H](CCCCN1C[C@@H](O)[C@H](O)[C@@H](O)C1)NS(=O)(=O)c1cccc2c(N(C)C)cccc12` [8, R^1 = NHdansyl, R^2 =], the Ki in test [1] (N-modified DIX derivatives 8) was 21 µM.
`COC(=O)[C@H](CCCCN1C[C@@H](O)[C@H](O)[C@@H](O)C1)N1C[C@@H](O)[C@H](O)[C@@H](O)C1` [8, R^1 = R^2 = OMe]: in test [1] (N-modified DIX derivatives 8), the Ki was 25 µM.
With `N#CCCN1C[C@@H](O)[C@H](O)[C@@H](O)C1` [Compound 7a], the Ki in test [1] (N-modified DIX derivatives 7) is 24 µM.
Regarding `COC(=O)CCN1C[C@@H](O)[C@H](O)[C@@H](O)C1` [Compound 7b], the Ki in test [1] (N-modified DIX derivatives 7) is 35 µM.
Regarding `CCCCCC[C@H]1NC[C@@H](O)[C@H](O)[C@H]1O` [Compound 10a], the IC50 in test [2] was 19 nM.
On to `CCCCCCO[C@H]1CNC[C@@H](O)[C@@H]1O` [Compound 10b], for which, in test [2], the IC50 is 9 nM.
Take `CCOC(=O)CC[C@H]1NC[C@@H](O)[C@H](O)[C@H]1O` [Compound 19, (1R)-1-C-(Ethyloxycarbonylethyl)-1,5-dideoxy-1,5-imino-D-xylitol]: the inhibition constant (Ki) was 5.1 µM in test [3]; over 1 mM in test [4]; 2.1 µM in test [5]; over 1 mM in test [6]; over 1 mM in test [7].
Consider `O=C(CC[C@H]1NC[C@@H](O)[C@H](O)[C@H]1O)NCCc1c[nH]cn1` [Compound 23, (1R)-1-C-[(Imidazo-4-yl)ethylaminocarbonylethyl]-1,5-dideoxy-1,5-imino-D-xylitol], for which the Ki in test [3] was 1.1 µM; in test [4], over 1 mM; in test [5], 1.6 µM; in test [6] it was over 1 mM; in test [7] it was over 1 mM.
As to `CC[C@@H]1[C@H](O)[C@@H](O)[C@H](O)CN1CCCCCC(=O)OC` [Compound 26, (1R)-1-C-Ethyl-N-(methyloxycarbonylpentyl)-1,5-dideoxy-1,5-imino-D-xylitol], the Ki in test [3] is 57 µM; in test [4], over 1 mM; in test [5], over 1000 µM; in test [6] it was over 1 mM; in test [7], over 1 mM. Besides, the “inhibition of β-Glu ABG, in words” value in test [5] was “No detectable inhibition”.
As to `CC[C@@H]1[C@H](O)[C@@H](O)[C@H](O)CN1CCCCCC(=O)NCCc1c[nH]cn1` [Compound 28, (1R)-1-C-Ethyl-N-[(imidazo-4-yl)ethylaminocarbonylpentyl]-1,5-dideoxy-1,5-imino-D-xylitol], the Ki in test [3] is 4.1 µM; in test [4], over 1 mM; in test [5], over 1000 µM; in test [6], over 1 mM; in test [7], over 1 mM. Besides, in test [5], the “inhibition of β-Glu ABG, in words” value is listed as “No detectable inhibition”.
Regarding `CCC[C@H]1NC[C@@H](O)[C@H](O)[C@H]1O` [R = (CH2)2CH3], the Ki in test [2] (setting [8]) is 1300 nM.
`OCC[C@H]1NC[C@@H](O)[C@H](O)[C@H]1O` [R = (CH2)2OH]: the Ki in test [2] (setting [8]) was 26700 nM.
Regarding `CCCCCCCCC[C@H]1NC[C@@H](O)[C@H](O)[C@H]1O` [R = C9H19], the Ki in test [2] (1-C-alkyl imino-D-xylitols 9) is 2.2 nM.
In the case of `CCCCCCCCCCCC[C@H]1NC[C@@H](O)[C@H](O)[C@H]1O` [R = C12H25], in test [2] (1-C-alkyl imino-D-xylitols 9), the Ki was 31 nM.
For the molecule `CC[C@H]1NC[C@@H](O)[C@H](O)[C@H]1O` [R = CH2CH3], in test [2] (setting [8]), the Ki was 2300 nM.
With `CC(C)[C@H]1NC[C@@H](O)[C@H](O)[C@H]1O` [R = CH(CH3)2], in test [2] (setting [8]), the Ki is 12400 nM.
Regarding `N#C[C@H]1NC[C@@H](O)[C@H](O)[C@H]1O` [R = CN], in test [2] (setting [8]), the Ki is 34000 nM.
With `O[C@@H]1[C@@H](O)[C@@H](CCCCCOCC23CC4CC(CC(C4)C2)C3)NC[C@H]1O` [R^1 = C-C, n=2, R^2 =], the Ki in test [2] (setting [9]) was 1 nM.
As for `O[C@@H]1[C@@H](O)[C@@H](CC=CCCOCC23CC4CC(CC(C4)C2)C3)NC[C@H]1O` [R^1 = C=C, n=2, R^2 =], the Ki in test [2] (setting [9]) was 2 nM.
